The text below walks through data of PubChem BioAssay AID504484 (Southern Research Specialized Biocontainment Screening …, 2011).

This experiment concerns human PBMC HIV-1 replication, RT activity in supernatant. In words: antiviral activity against X4-tropic HIV-1 in PBMC – cell-based, CXCR4-tropic HIV-1, primary PBMCs, dose response (AID 504484).
As to `Cc1c2c(=O)n(-c3nc4ccccc4s3)nc-2cc(O)n1CCC(C)C`, the concentration for half-maximal inhibition (IC50) (usually the concentration that gives 50% inhibition) was 5.68 µM.
On to `Cc1c2c(=O)n(-c3nc4ccccc4s3)nc-2cc(O)n1Cc1cccs1`, for which the half-inhibitory concentration (IC50) was 11.5 µM.
In the case of `Cc1c2c(=O)n(-c3nc4ccccc4s3)nc-2cc(O)n1Cc1ccncc1` it was 1.81 µM.
In the case of `COc1ccccc1Cn1c(O)cc2nn(-c3nc4ccccc4s3)c(=O)c-2c1C`, the 50% inhibitory concentration (IC50) is 4.42 µM.
As to `Cc1c2c(=O)n(-c3nc4ccccc4s3)nc-2cc(O)n1Cc1ccccc1Cl`, the IC50 is 7.44 µM.
In the case of `Cc1c2c(=O)n(-c3nc4ccccc4s3)nc-2cc(O)n1CCc1ccc(O)cc1` it was 1.32 µM.
In the case of `Cc1c2c(=O)n(-c3nc4ccccc4s3)nc-2cc(O)n1Cc1ccc(F)cc1` it was 7.48 µM; in that of `COc1ccc(CCn2c(O)cc3nn(-c4nc5ccccc5s4)c(=O)c-3c2C)cc1`, 5.45 µM.
In the case of `COc1ccc(Cn2c(O)cc3nn(-c4nc5ccccc5s4)c(=O)c-3c2C)cc1` it was 7.71 µM; in that of `Cc1c2c(=O)n(-c3nc4ccccc4s3)nc-2cc(O)n1C1CC1`, 3.35 µM; in that of `Cc1c2c(=O)n(-c3nc4ccccc4s3)nc-2cc(O)n1CCc1cccs1`, 28.7 µM.
On to `Cc1c2c(=O)n(-c3nc4ccccc4s3)nc-2cc(O)n1Cc1cccnc1`, for which the half-inhibitory concentration (IC50) is 2.86 µM.
